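The compound was tested at five concentrations on cells cultured in 96-well plates, with a 48-hour exposure period. Here, GI50 denotes the concentration required for 50% inhibition of growth.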 Active and inactive are the calls of the source. Cut-off read from the data, not from the text of the source: active = GI50 up to about 1.1 µM and inactive = higher.
Legend:
Experiment in all cases: inhibition of tumour cell growth, NCI panel, 48 h
[1] = system: A498
[2] = system: COLO 205
[3] = system: DU-145
[4] = system: HCC 2998
[5] = system: HT-29
[6] = system: K562
[7] = system: MCF7
[8] = system: MDA-N
[9] = system: NCI-H23
[10] = system: NCI-H460
[11] = system: NCI/ADR-RES
[12] = system: OVCAR-4
[13] = system: SF-268
[14] = system: SK-MEL-28
[15] = system: SK-MEL-2
[16] = system: SK-MEL-5
[17] = system: SK-OV-3
[18] = system: SNB-19
[19] = system: SNB-75

Measured: GI50

CCCCCCCCCCCCCC(=O)OCC(CCS(=O)(=O)O[C@H]1CC[C@@]2(C)C(=CC[C@@H]3C2CC[C@]2(C)C(=O)CCC32)C1)OC(=O)CCCCCCCCCCCCC (some centres not stated)
inactive: [1] > 100 µM | [2] > 100 µM | [3] > 100 µM | [4] > 100 µM | [5] > 100 µM | [6] > 100 µM | [7] > 100 µM | [8] > 100 µM | [9] > 100 µM | [10] > 100 µM | [11] > 100 µM | [12] > 100 µM | [13] > 100 µM | [14] > 100 µM | [15] > 100 µM | [16] > 100 µM | [17] > 100 µM | [18] > 100 µM | [19] > 100 µM

CSCCC(NC(=O)OC(C)(C)C)C(=O)NCCNc1ccc(NCCNC(=O)C(CCSC)NC(=O)OC(C)(C)C)c2c1C(=O)c1ccccc1C2=O (configuration not stated)
inactive: [1] 4.62 µM | [2] 2.22 µM | [3] 4.79 µM | [4] 2.32 µM | [5] 2.64 µM | [6] 2.75 µM | [7] 6.01 µM | [8] 2.74 µM | [9] 4.51 µM | [10] 5.85 µM | [11] > 74.1 µM | [12] 6.7 µM | [13] 3.37 µM | [14] 1.85 µM | [15] 14.2 µM | [16] 3.07 µM | [17] 8.89 µM | [18] 4.75 µM | [19] 2.37 µM

CCOC(=O)Cc1csc(N/N=C2\C(=O)Nc3ccccc32)n1
inactive: [1] 27.4 µM | [2] 28.6 µM | [3] 76.7 µM | [4] 59 µM | [5] 42.6 µM | [6] 40.4 µM | [7] 33.1 µM | [8] 41.8 µM | [9] 32.6 µM | [10] 33.4 µM | [11] 31.8 µM | [12] 56.9 µM | [13] 66.8 µM | [15] 52.6 µM | [16] 21.7 µM | [17] 49.4 µM | [18] 26.9 µM | [19] 28.2 µM

COc1ccc(/C=C/c2nccc3ccccc23)cc1OC
inactive: [1] 9.73 µM | [2] > 10 µM | [3] > 10 µM | [4] > 10 µM | [5] 4.05 µM | [6] 5.5 µM | [7] 2.43 µM | [8] > 10 µM | [9] 7.21 µM | [10] > 10 µM | [11] 9.38 µM | [12] > 10 µM | [13] > 10 µM | [14] > 10 µM | [15] > 10 µM | [16] 6.21 µM | [17] > 10 µM | [18] > 10 µM | [19] > 10 µM

C=CCN(c1cc(OC)c2[nH]cc(C)c2c1[N+](=O)[O-])S(C)(=O)=O
inactive: [1] > 100 µM | [2] > 100 µM | [3] > 100 µM | [4] > 100 µM | [6] > 100 µM | [7] > 100 µM | [8] > 100 µM | [9] > 100 µM | [10] > 100 µM | [11] > 100 µM | [12] > 100 µM | [13] > 100 µM | [14] > 100 µM | [15] > 100 µM | [16] > 100 µM | [17] > 100 µM | [18] > 100 µM | [19] > 100 µM

CCCCN(CC)C(=O)C1=C(C)NC(C)=C(C(=O)N(CC)CCCC)C1
inactive: [1] > 100 µM | [2] > 100 µM | [3] > 100 µM | [4] > 100 µM | [5] > 100 µM | [7] > 100 µM | [8] > 100 µM | [9] > 100 µM | [10] > 100 µM | [11] > 100 µM | [12] > 100 µM | [13] > 100 µM | [14] > 100 µM | [15] > 100 µM | [16] > 100 µM | [17] > 100 µM | [18] > 100 µM | [19] 77.1 µM

O=c1cc(N2CCOCC2)[nH]c(=O)n1-c1cccc(C(F)(F)F)c1
inactive: [1] > 100 µM | [2] > 100 µM | [3] > 100 µM | [4] > 100 µM | [5] > 100 µM | [6] > 100 µM | [7] > 100 µM | [8] > 100 µM | [9] > 100 µM | [10] > 100 µM | [11] > 100 µM | [12] > 100 µM | [13] > 100 µM | [14] > 100 µM | [15] 43.3 µM | [16] > 100 µM | [17] > 100 µM | [19] > 100 µM

O=C1CC2(c3ccccc3)ON=C(c3ccccc3)N2c2ccccc2N1 (configuration not stated)
inactive: [1] 95.3 µM | [2] 51.8 µM | [3] 61.5 µM | [4] 65 µM | [5] 38.3 µM | [6] 38.8 µM | [7] 55.7 µM | [8] 32.7 µM | [9] 47.3 µM | [10] 36.7 µM | [11] 35.1 µM | [12] > 100 µM | [13] 50.5 µM | [14] 50.6 µM | [15] 50.2 µM | [17] 19.7 µM | [18] > 100 µM | [19] 52 µM

Reference: ChEMBL document CHEMBL1201862, “PubChem BioAssay data set” (2004)
